# Measurements reported in patent publication US6787327B2, “Methods for determining tyrosine-DNA phosphodiesterase activity” (Kelk Graduate of Applied Life Sciences, priority 2001, dated 2004).
# Biological target: HTDPNΔ1-39 (recombinant human TDP) (Homo sapiens, UniProt Q9NUW8)
# Details: manganese chloride 5 mM or 10 mM; 5 mM substrate, 5 μg protein; absorbance at 415 nm; FIG. 7
# Text: In these assays, a chromogenic enzymatic assay system is used. In these systems, a substrate of smaller molecular weight (i.e., as compared with other substrates) containing one single base of thymidine, with chromogenic para-nitrophenyl group attached to the 3′-hydroxy group of deoxyribose was chosen. This compound mimics the aromatic groups of tyrosine in topo I-DNA complexes.
# Upon the cleavage of the phosphodiester bond by TDP, the p-nitrophenol group mimicking the tyrosine residue in topo I-DNA complexes is released. The concentration of this group (i.e., a chromogen) is determined using spectroscopy. Thus, in this Example, enzymatic reactions contained 100 mM Tris HCl, pH 8.5, 100 mM NaCl, 1 mM DTT, 5 mM para-nitrophenyl thymidine-3′-phosphate and 5 μg of purified protein in a volume of 200 μl. For these reactions, 96-well plates were used. The amount of cleaved product (p-nitrophenol) was assessed by determining its absorbance at 415 nm (Ultramark Microplate Imaging System, BioRad).
# During the development of this assay system, it was determined that the system may be optimized by the inclusion of manganese cation in the assay. […] Upon incubation of various TDP mutants and the substrate (para-nitrophenyl-thymidine-3′-phosphate) in the presence of manganese cations, the concentrations of the resulting para-nitrophenynol were calculated based on the optical density measured at 415 nm. […]
# HTDPNΔ1-39 (recombinant human TDP), sequence (Q9NUW8 40-608, stated change not applied): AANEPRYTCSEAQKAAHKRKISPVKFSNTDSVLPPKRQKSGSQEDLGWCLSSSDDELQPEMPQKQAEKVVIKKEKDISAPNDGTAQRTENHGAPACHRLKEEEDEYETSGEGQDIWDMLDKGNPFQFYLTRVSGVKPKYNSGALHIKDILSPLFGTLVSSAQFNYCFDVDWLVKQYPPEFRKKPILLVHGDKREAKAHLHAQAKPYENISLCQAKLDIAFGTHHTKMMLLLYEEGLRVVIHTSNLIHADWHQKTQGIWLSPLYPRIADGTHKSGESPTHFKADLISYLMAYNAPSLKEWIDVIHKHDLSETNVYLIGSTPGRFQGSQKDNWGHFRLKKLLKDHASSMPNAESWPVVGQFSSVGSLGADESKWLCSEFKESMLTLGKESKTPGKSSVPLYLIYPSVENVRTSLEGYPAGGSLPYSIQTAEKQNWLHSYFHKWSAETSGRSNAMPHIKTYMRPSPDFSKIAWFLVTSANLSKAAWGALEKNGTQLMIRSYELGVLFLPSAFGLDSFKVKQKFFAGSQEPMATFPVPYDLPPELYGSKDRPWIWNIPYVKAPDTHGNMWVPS
substance,measurement,value
manganese chloride,"increase of enzymatic activity on para-nitrophenyl thymidine-3′-phosphate, as compared to the activity in the presence of magnesium",7 fold
same,"increase of enzymatic activity on para-nitrophenyl thymidine-3′-phosphate, as compared with the activity in the absence of cations",17 fold
